Reference: patent US20250249056A1, “CANCER THERAPIES COMPRISING A NUCLEAR EXPORT INHIBITOR AND AN ONCOLYTIC VIRUS” (priority 2022, published 2025)
Where two headings read alike, the source gives them in different places.

Test system: Colo205 cells
Assay type: cell-based, human
[1] = selinexor-treated nucleus vs MYXV + selinexor-treated nucleus

## O=C(/C=C\n1cnc(-c2cc(C(F)(F)F)cc(C(F)(F)F)c2)n1)NNc1cnccn1 [selinexor]
Q14207, selinexor-treated cytoplasm vs control cytoplasm
  Differential protein expression, NPAT: 0.01
Q14574, selinexor-treated cytoplasm vs control cytoplasm
  Differential protein expression, DSC3: 2.069
Q14686, selinexor-treated cytoplasm vs control cytoplasm
  Differential protein expression, NCOA6: 0.01
Q15047, selinexor-treated cytoplasm vs control cytoplasm
  Differential protein expression, SETDB1: 0.01
Q15050, selinexor-treated cytoplasm vs control cytoplasm
  Differential protein expression, RRS1: 2.155
Q15388, selinexor-treated cytoplasm vs control cytoplasm
  Differential protein expression, TOMM20: 2.862
Q15517, selinexor-treated cytoplasm vs control cytoplasm
  Differential protein expression, CDSN: 3.988
Q15545, selinexor-treated cytoplasm vs control cytoplasm
  Differential protein expression, TAF7: 0.402
Q15572, selinexor-treated cytoplasm vs control cytoplasm
  Differential protein expression, TAF1C: 100
Q15723, selinexor-treated cytoplasm vs control cytoplasm
  Differential protein expression, ELF2: 0.01
Q85295, selinexor-treated cytoplasm vs control cytoplasm
  Differential protein expression, M11L: 4.074
Q92614, selinexor-treated cytoplasm vs control cytoplasm
  Differential protein expression, MYO18A: 2.026
Q92738, selinexor-treated cytoplasm vs control cytoplasm
  Differential protein expression, USP6NL: 100
Q92804, selinexor-treated cytoplasm vs control cytoplasm
  Differential protein expression, TAF15: 2.706
Q92993, selinexor-treated cytoplasm vs control cytoplasm
  Differential protein expression, KAT5: 7.08
Q99594, selinexor-treated cytoplasm vs control cytoplasm
  Differential protein expression, TEAD3: 100
Q99808, selinexor-treated cytoplasm vs control cytoplasm
  Differential protein expression, SLC29A1: 0.406
Protein AAAS (Q9NRG9)
  Differential protein expression, selinexor-treated nucleus vs control nucleus: 0.477
Protein ABHD10 (Q9NUJ1)
  Differential protein expression, selinexor-treated nucleus vs control nucleus: 2.289
Protein ACAD10 (Q6JQN1)
  Differential protein expression, selinexor-treated nucleus vs control nucleus: 2.239
Protein BRIX1 (Q8TDN6)
  Differential protein expression, selinexor-treated nucleus vs control nucleus: 0.475
Protein CALML5 (Q9NZT1)
  Differential protein expression, selinexor-treated nucleus vs control nucleus: 2.328
Protein CASP9 (P55211)
  Differential protein expression, selinexor-treated nucleus vs control nucleus: 100
Protein CDK3 (Q00526)
  Differential protein expression, selinexor-treated nucleus vs control nucleus: 0.472
Protein CHMP2B (Q9UQN3)
  Differential protein expression, selinexor-treated nucleus vs control nucleus: 2.092
Protein CIB1 (Q99828)
  Differential protein expression, selinexor-treated nucleus vs control nucleus: 0.474
Protein CIT (O14578)
  Differential protein expression, selinexor-treated nucleus vs control nucleus: 0.498
Protein COA1 (Q9GZY4)
  Differential protein expression, selinexor-treated nucleus vs control nucleus: 0.481
Protein CSTA (P01040)
  Differential protein expression, selinexor-treated nucleus vs control nucleus: 2.196
Protein ECHDC1 (Q9NTX5)
  Differential protein expression, selinexor-treated nucleus vs control nucleus: 2.716
Protein EFNB1 (P98172)
  Differential protein expression, selinexor-treated nucleus vs control nucleus: 100
Protein ERLIN2 (O94905)
  Differential protein expression, selinexor-treated nucleus vs control nucleus: 0.498
Protein F5 (P12259)
  Differential protein expression, selinexor-treated nucleus vs control nucleus: 100
Protein FBLIM1 (Q8WUP2)
  Differential protein expression, selinexor-treated nucleus vs control nucleus: 0.481
Protein FHIP1B (Q8N612)
  Differential protein expression, selinexor-treated nucleus vs control nucleus: 100
Protein FN3K (Q9H479)
  Differential protein expression, selinexor-treated nucleus vs control nucleus: 2.007
Protein FOS (P01100)
  Differential protein expression, selinexor-treated nucleus vs control nucleus: 2.044
Protein FXR1 (Q9UM11)
  Differential protein expression, selinexor-treated nucleus vs control nucleus: 2.17
Protein GEMIN5 (Q8TEQ6)
  Differential protein expression, selinexor-treated nucleus vs control nucleus: 0.496
Protein GEMIN6 (Q8WXD5)
  Differential protein expression, selinexor-treated nucleus vs control nucleus: 0.473
Protein GNL2 (Q13823)
  Differential protein expression, selinexor-treated nucleus vs control nucleus: 2.38
Protein H2AC1 (Q96QV6)
  Differential protein expression, selinexor-treated nucleus vs control nucleus: 2.215
Protein H2AC4 (P04908)
  Differential protein expression, selinexor-treated nucleus vs control nucleus: 2.544
Protein H2AC6 (Q93077)
  Differential protein expression, selinexor-treated nucleus vs control nucleus: 2.544
Protein H2AC18 (Q6FI13)
  Differential protein expression, selinexor-treated nucleus vs control nucleus: 2.322
Protein H2AC20 (Q16777)
  Differential protein expression, selinexor-treated nucleus vs control nucleus: 2.322
Protein H2AC21 (Q8IUE6)
  Differential protein expression, selinexor-treated nucleus vs control nucleus: 2.215
Protein H2AC25 (Q7L7L0)
  Differential protein expression, selinexor-treated nucleus vs control nucleus: 2.544
Protein H2AX (P16104)
  Differential protein expression, selinexor-treated nucleus vs control nucleus: 2.215
Protein H2BK1 (A0A2R8Y619)
  Differential protein expression, selinexor-treated nucleus vs control nucleus: 2.69
Protein H3-3A (P84243)
  Differential protein expression, selinexor-treated nucleus vs control nucleus: 2.584
Protein HK1 (P19367)
  Differential protein expression, selinexor-treated nucleus vs control nucleus: 0.496
Protein HNRNPA1L2 (Q32P51)
  Differential protein expression, selinexor-treated nucleus vs control nucleus: 2.623
Protein KIF23 (Q02241)
  Differential protein expression, selinexor-treated nucleus vs control nucleus: 0.492
Protein KRT1 (P04264)
  Differential protein expression, selinexor-treated nucleus vs control nucleus: 2.317
Protein KRT7 (P08729)
  Differential protein expression, selinexor-treated nucleus vs control nucleus: 2.576
Protein KRT14 (P02533)
  Differential protein expression, selinexor-treated nucleus vs control nucleus: 2.157
Protein KRT24 (Q2M2I5)
  Differential protein expression, selinexor-treated nucleus vs control nucleus: 2.19
Protein KRT25 (Q7Z3Z0)
  Differential protein expression, selinexor-treated nucleus vs control nucleus: 2.158
Protein KRT27 (Q7Z3Y8)
  Differential protein expression, selinexor-treated nucleus vs control nucleus: 2.158
Protein KRT28 (Q7Z3Y7)
  Differential protein expression, selinexor-treated nucleus vs control nucleus: 2.058
Protein LGALS7 (P47929)
  Differential protein expression, selinexor-treated nucleus vs control nucleus: 2.013
Protein LRRC58 (Q96CX6)
  Differential protein expression, selinexor-treated nucleus vs control nucleus: 2.747
Protein MAFF (Q9ULX9)
  Differential protein expression, selinexor-treated nucleus vs control nucleus: 2.133
Protein MAGED2 (Q9UNF1)
  Differential protein expression, selinexor-treated nucleus vs control nucleus: 2.271
Protein MAN1A1 (P33908)
  Differential protein expression, selinexor-treated nucleus vs control nucleus: 100
Protein MICOS13 (Q5XKP0)
  Differential protein expression, selinexor-treated nucleus vs control nucleus: 0.483
Protein MTX1 (Q13505)
  Differential protein expression, selinexor-treated nucleus vs control nucleus: 0.499
Protein NDE1 (Q9NXR1)
  Differential protein expression, selinexor-treated nucleus vs control nucleus: 0.484
Protein NDEL1 (Q9GZM8)
  Differential protein expression, selinexor-treated nucleus vs control nucleus: 0.481
Protein NDUFA5 (Q16718)
  Differential protein expression, selinexor-treated nucleus vs control nucleus: 0.488
Protein NDUFA11 (Q86Y39)
  Differential protein expression, selinexor-treated nucleus vs control nucleus: 0.492
Protein NDUFS3 (075489)
  Differential protein expression, selinexor-treated nucleus vs control nucleus: 0.478
Protein NDUFS8 (O00217)
  Differential protein expression, selinexor-treated nucleus vs control nucleus: 0.487
Protein NFAT5 (O94916)
  Differential protein expression, selinexor-treated nucleus vs control nucleus: 2.586
Protein NUDT3 (O95989)
  Differential protein expression, selinexor-treated nucleus vs control nucleus: 100
Protein NXN (Q6DKJ4)
  Differential protein expression, selinexor-treated nucleus vs control nucleus: 100
Protein OAS1 (P00973)
  Differential protein expression, selinexor-treated nucleus vs control nucleus: 2.45
Protein OCIAD2 (Q56VL3)
  Differential protein expression, selinexor-treated nucleus vs control nucleus: 0.5
Protein PAN2 (Q504Q3)
  Differential protein expression, selinexor-treated nucleus vs control nucleus: 2.108
Protein PAN3 (Q58A45)
  Differential protein expression, selinexor-treated nucleus vs control nucleus: 2.073
Protein PANK1 (Q8TE04)
  Differential protein expression, selinexor-treated nucleus vs control nucleus: 100
Protein PATL1 (Q86TB9)
  Differential protein expression, selinexor-treated nucleus vs control nucleus: 0.487
Protein PAXX (Q9BUH6)
  Differential protein expression, selinexor-treated nucleus vs control nucleus: 2.321
Protein PHF19 (Q5T6S3)
  Differential protein expression, selinexor-treated nucleus vs control nucleus: 0.477
Protein PNO1 (Q9NRX1)
  Differential protein expression, selinexor-treated nucleus vs control nucleus: 2.639
Protein POLR2B (P30876)
  Differential protein expression, selinexor-treated nucleus vs control nucleus: 0.486
Protein PRDX4 (Q13162)
  Differential protein expression, selinexor-treated nucleus vs control nucleus: 2.477
Protein RBL2 (Q08999)
  Differential protein expression, selinexor-treated nucleus vs control nucleus: 2.063
Protein ROCK1 (Q13464)
  Differential protein expression, selinexor-treated nucleus vs control nucleus: 2.201
Protein RPL10 (P27635)
  Differential protein expression, selinexor-treated nucleus vs control nucleus: 0.483
Protein RPL10L (Q96L21)
  Differential protein expression, selinexor-treated nucleus vs control nucleus: 0.473
Protein RPLP1 (P05386)
  Differential protein expression, selinexor-treated nucleus vs control nucleus: 0.472
Protein RRM1 (P23921)
  Differential protein expression, selinexor-treated nucleus vs control nucleus: 0.488
Protein RTN4 (Q9NQC3)
  Differential protein expression, selinexor-treated nucleus vs control nucleus: 0.491
Protein S100A8 (P05109)
  Differential protein expression, selinexor-treated nucleus vs control nucleus: 2.396
Protein SDAD1 (Q9NVU7)
  Differential protein expression, selinexor-treated nucleus vs control nucleus: 2.021
Protein SDCBP2 (Q9H190)
  Differential protein expression, selinexor-treated nucleus vs control nucleus: 2.735
Protein SFXN2 (Q96NB2)
  Differential protein expression, selinexor-treated nucleus vs control nucleus: 0.478
Protein SFXN5 (Q8TD22)
  Differential protein expression, selinexor-treated nucleus vs control nucleus: 0.48
Protein SLC12A7 (Q9Y666)
  Differential protein expression, selinexor-treated nucleus vs control nucleus: 0.496
Protein SLC25A11 (Q02978)
  Differential protein expression, selinexor-treated nucleus vs control nucleus: 0.496
Protein SLC25A12 (O75746)
  Differential protein expression, selinexor-treated nucleus vs control nucleus: 0.483
Protein SLC25A17 (O43808)
  Differential protein expression, selinexor-treated nucleus vs control nucleus: 0.484
Protein SLC25A35 (Q3KQZ1)
  Differential protein expression, selinexor-treated nucleus vs control nucleus: 0.474
Protein SPG7 (Q9UQ90)
  Differential protein expression, selinexor-treated nucleus vs control nucleus: 0.481
Protein TDRKH (Q9Y2W6)
  Differential protein expression, selinexor-treated nucleus vs control nucleus: 0.492
Protein TEAD2 (Q15562)
  Differential protein expression, selinexor-treated nucleus vs control nucleus: 0.487
Protein TEAD4 (Q15561)
  Differential protein expression, selinexor-treated nucleus vs control nucleus: 0.494
Protein TMA7 (Q9Y2S6)
  Differential protein expression, selinexor-treated nucleus vs control nucleus: 2.251
Protein TOMM20 (Q15388)
  Differential protein expression, selinexor-treated nucleus vs control nucleus: 0.497
Protein TPPP3 (Q9BW30)
  Differential protein expression, selinexor-treated nucleus vs control nucleus: 2.549
Protein UQCR10 (Q9UDW1)
  Differential protein expression, selinexor-treated nucleus vs control nucleus: 0.477
Protein VCPIP1 (Q96JH7)
  Differential protein expression, selinexor-treated nucleus vs control nucleus: 2.057
Protein YBX1 (P67809)
  Differential protein expression, selinexor-treated nucleus vs control nucleus: 0.477
Protein m090L (D2WN26)
  Differential protein expression, selinexor-treated nucleus vs control nucleus: 100
Protein m093L (Q9Q8K7)
  Differential protein expression, selinexor-treated nucleus vs control nucleus: 0.498
[1]
  Differential protein expression B2CWA6 m003.1R: 0.145
  Differential protein expression B2CWA8: 0.122
  Differential protein expression B2CWB0: 0.01
  Differential protein expression B2CWB2: 0.055
  Differential protein expression B2CWB4 m008.1L: 0.045
  Differential protein expression B2CWB5: 0.036
  Differential protein expression B2CWC0: 0.092
  Differential protein expression B2CWC1 m015L: 0.04
  Differential protein expression B2CWC6 m020L: 0.191
  Differential protein expression B2CWC8: 0.058
  Differential protein expression B2CWD4 m027L: 0.045
  Differential protein expression B2CWD6 m029L: 0.023
  Differential protein expression B2CWD8: 0.011
  Differential protein expression B2CWE0 m033R: 0.01
  Differential protein expression B2CWE1: 0.047
  Differential protein expression B2CWE3: 0.064
  Differential protein expression B2CWF3 m046L: 0.111
  Differential protein expression B2CWF4 m047R: 0.039
  Differential protein expression B2CWF6: 0.051
